Measured values reported in patent EP4603105A1, “PHARMACEUTICAL COMPOSITION CONTAINING CYCLIC COMPOUND HAVING SELECTIVE KRAS INHIBITORY EFFECT AGAINST HRAS AND NRAS” (CHUGAI SEIYAKU KABUSHIKI KAISHA, priority 2022, dated 2024).
Where a SMILES comes first, the peptide text is derived from it. Bridges are numbered along the chain shown (N, C = ends). [ ]: non-standard residue; d: D form. The star is where a group is joined. hPhe(3-Cl-4-CF3) = N[C@@H](CCc1ccc(C(F)(F)F)c(Cl)c1)C(=O)O; NPrPhe(4-CF3) = CCCN[C@@H](Cc1ccc(C(F)(F)F)cc1)C(=O)O; NMeGly(cPent) = CN[C@H](C(=O)O)C1CCCC1; NMeD = CN[C@@H](CC(=O)O)C(=O)O; NMeL = CN[C@@H](CC(C)C)C(=O)O; NMeNva = CCC[C@H](NC)C(=O)O; Morpholide = C1CN(*)CCO1; Ac4c = NC1(C(=O)O)CCC1; NPrGly = CCCNCC(=O)O; NEtG = CCNCC(=O)O; Sar = CNCC(=O)O

Columns and labels:
[1] = system: human lung cancer strain NCI-H441; assay type: cell-based
Outline: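 Readout: […] after the ATP-based reagent. Compound: serial dilutions in dimethyl sulfoxide.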

[2] = biological target: GDP-bound KRAS wild-type protein (Homo sapiens, UniProt P01116); test: Binding to KRAS by surface plasmon resonance (SPR), dissociation constant KD; conditions: Single Cycle Kinetics, 1:1 binding model
GDP-bound KRAS wild-type protein, sequence (P01116 1-188 isoform P01116-2): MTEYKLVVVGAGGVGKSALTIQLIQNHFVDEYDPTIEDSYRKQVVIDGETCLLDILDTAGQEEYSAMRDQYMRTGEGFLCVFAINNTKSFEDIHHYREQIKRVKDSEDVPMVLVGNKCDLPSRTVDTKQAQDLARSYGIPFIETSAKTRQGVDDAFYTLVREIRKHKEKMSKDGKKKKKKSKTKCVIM
Outline: (§1)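 Affinity is measured by surface plasmon resonance at 30°C against captured, GDP-loaded RAS carrying a biotinylated Avi tag. Compounds are titrated by single-cycle kinetics, and KD comes from a 1:1 fit.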

[3] = biological target: GDP-bound NRAS wild-type protein (Homo sapiens, UniProt P01111); test: Binding to NRAS by surface plasmon resonance (SPR), KD and KD ratio to KRAS
GDP-bound NRAS wild-type protein, sequence (P01111 whole entry): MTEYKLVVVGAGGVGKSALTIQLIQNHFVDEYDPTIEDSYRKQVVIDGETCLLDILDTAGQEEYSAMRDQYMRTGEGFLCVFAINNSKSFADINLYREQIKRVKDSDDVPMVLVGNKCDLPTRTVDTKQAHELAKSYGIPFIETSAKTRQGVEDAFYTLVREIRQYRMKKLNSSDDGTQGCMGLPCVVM
Outline: as §1

[4] = biological target: HRAS wild-type protein (Homo sapiens, UniProt P01112); test: Binding to HRAS by surface plasmon resonance (SPR), KD and KD ratio to KRAS
HRAS wild-type protein, sequence (P01112 whole entry): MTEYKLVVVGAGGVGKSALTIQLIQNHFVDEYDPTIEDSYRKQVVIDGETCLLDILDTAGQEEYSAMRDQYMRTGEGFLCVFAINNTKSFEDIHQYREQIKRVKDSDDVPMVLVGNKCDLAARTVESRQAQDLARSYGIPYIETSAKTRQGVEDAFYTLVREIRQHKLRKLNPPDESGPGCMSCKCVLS
Outline: as §1

[5] = ratio of the KD value with respect to GDP-bound NRAS wild-type protein to the KD value with respect to KRAS
[6] = ratio of the KD value with respect to HRAS wild-type protein to the KD value with respect to KRAS

SMILES	IC50 [1] [nM]	Kd [2] [nM]	NRAS /KRAS ([3]; ratio of KD value for GDP-bound NRAS wild-type protein to KD value for KRAS (SPR))	HRAS /KRAS ([4]; ratio of KD value for HRAS wild-type protein to KD value for KRAS (SPR))	NRAS /KRAS [3, 5]	HRAS /KRAS [4, 6]
CCC[C@H]1C(=O)N[C@@H]([C@@H](C)CC)C(=O)N(C)CC(=O)N(C)[C@H]2C/C=C\CCN(C2=O)[C@@H](Cc2ccc(C)cc2)C(=O)N(C)CC(=O)N[C@@H](CCc2ccc(C(F)(F)F)c(Cl)c2)C(=O)N2C[C@H](C)C[C@H]2C(=O)NC2(CC(C)(C)C2)C(=O)N(C)[C@@H](C2CCCC2)C(=O)N(C)[C@H](C(=O)N(C)CC)CC(=O)N1C [PP1894]	15.9	0.2	A (a compound having 10 or more and less than 20 is denoted as A)	A (a compound having 10 or more and less than 20 is denoted as A)	–	–
CC[C@H](C)[C@@H]1NC(=O)[C@H](CC2CC2)N(C)C(=O)C[C@@H](C(=O)N(C)CC)N(C)C(=O)[C@H](C2CCCC2)N(C)C(=O)C2(CC(C)(C)C2)NC(=O)[C@@H]2C[C@H](C)CN2C(=O)[C@H](CCc2ccc(C(F)(F)F)c(OC)c2)NC(=O)CN(C)C(=O)[C@H](Cc2ccc(C)cc2)N2CC/C=C\C[C@@H](C2=O)N(C)C(=O)CN(C)C1=O [PP1899]	15.1	0.12	–	–	A (a compound having 10 or more and less than 20 is denoted as A)	B (a compound having 3 or more and less than 10 is denoted as B)
CCCN(C)C(=O)[C@@H]1CC(=O)N(C)[C@@H](CC(C)C)C(=O)N[C@@H]([C@@H](C)CC)C(=O)N(C)CC(=O)N(C)[C@H]2C/C=C\CCN(C2=O)[C@@H](Cc2ccc(C(F)(F)F)cc2)C(=O)N(C)CC(=O)N[C@@H](CCc2cc(F)c(C(F)(F)F)c(F)c2)C(=O)N2C[C@H](OCC)C[C@H]2C(=O)NC2(COC2)C(=O)N(C)[C@@H](C2CCCC2)C(=O)N1C [PP1938]	34.6	0.34	–	–	AA (a compound having 20 or more is denoted as AA)	A (a compound having 10 or more and less than 20 is denoted as A)
CCCN1C(=O)CN(CC)C(=O)CN(C)C(=O)[C@H]([C@@H](C)CC)NC(=O)[C@H](CC(C)C)N(C)C(=O)C[C@@H](C(=O)N2CCOCC2)N(C)C(=O)[C@H](C2CCCC2)N(C)C(=O)C2(CCC2)NC(=O)[C@@H]2CCCN2C(=O)[C@H](CCc2ccc(C(F)(F)F)c(Cl)c2)NC(=O)CN(C)C(=O)[C@@H]1Cc1ccc(C(F)(F)F)cc1 [PP1948] ([NMeL]I[Sar][NEtG][NPrPhe(4-CF3)][Sar][hPhe(3-Cl-4-CF3)]P[Ac4c][NMeGly(cPent)][NMeD]-Morpholide; lactam N-11)	16.2	0.41	–	–	C (A compound having a KD ratio of 0.1 or more and less than 3 is denoted as C)	C (A compound having a KD ratio of 0.1 or more and less than 3 is denoted as C)
CC[C@H](C)[C@@H]1NC(=O)[C@H](C2CC2)N(C)C(=O)C[C@@H](C(=O)N(C)CC)N(C)C(=O)[C@H](C2CCCC2)N(C)C(=O)C2(CC(C)(C)C2)NC(=O)[C@@H]2C[C@H](C)CN2C(=O)[C@H](CCc2cc(F)c(C(F)(F)F)c(F)c2)NC(=O)CN(C)C(=O)[C@H](Cc2ccc(C(F)(F)F)cc2)N2CC/C=C\C[C@@H](C2=O)N(C)C(=O)CN(C)C1=O [PP1980]	30.1	0.36	–	–	A (a compound having 10 or more and less than 20 is denoted as A)	B (a compound having 3 or more and less than 10 is denoted as B)
CCCOC[C@H]1C(=O)N[C@@H]([C@@H](C)CC)C(=O)N(C)CC(=O)N(C)[C@H]2C/C=C\CCN(C2=O)[C@@H](Cc2ccc(C(F)(F)F)cc2)C(=O)N(C)CC(=O)N[C@@H](CCc2ccc(C(F)(F)F)c(OC)c2)C(=O)N2C[C@@H](C)C[C@H]2C(=O)NC2(CC(C)(C)C2)C(=O)N(C)[C@@H](C2CCCC2)C(=O)N(C)[C@H](C(=O)N(C)C)CC(=O)N1C [PP1997]	14.2	0.098	–	–	A (a compound having 10 or more and less than 20 is denoted as A)	B (a compound having 3 or more and less than 10 is denoted as B)
CCCN(C)C(=O)[C@@H]1CC(=O)N(C)[C@@H](C2CCC2)C(=O)N[C@@H]([C@@H](C)CC)C(=O)N(C)CC(=O)N(C)[C@H]2C/C=C\CCN(C2=O)[C@@H](Cc2ccc(C(F)(F)F)cc2)C(=O)N(C)CC(=O)N[C@@H](CCc2cc(F)c(C(F)(F)F)c(F)c2)C(=O)N2C[C@H](OCC)C[C@H]2C(=O)NC2(CCC2)C(=O)N(C)[C@@H](C2CCCC2)C(=O)N1C [PP1998]	16.1	0.17	–	–	A (a compound having 10 or more and less than 20 is denoted as A)	B (a compound having 3 or more and less than 10 is denoted as B)
CCCOC[C@H]1C(=O)N[C@@H]([C@@H](C)CC)C(=O)N(C)CC(=O)N(C)[C@H]2C/C=C\CCN(C2=O)[C@@H](Cc2ccc(C(F)(F)F)cc2)C(=O)N(C)CC(=O)N[C@@H](CCc2cc(F)c(C(F)(F)F)c(F)c2)C(=O)N2C[C@@H](C)C[C@H]2C(=O)NC2(CCC2)C(=O)N(C)[C@@H](C2CCCC2)C(=O)N(C)[C@H](C(=O)N(C)CCC)CC(=O)N1C [PP2008]	15.2	0.13	–	–	A (a compound having 10 or more and less than 20 is denoted as A)	A (a compound having 10 or more and less than 20 is denoted as A)

Stronger by IC50 [1], values ahead:

IC50 [1] [nM]	Kd [2] [nM]	SMILES	NRAS /KRAS ([3]; ratio of KD value for GDP-bound NRAS wild-type protein to KD value for KRAS (SPR))	HRAS /KRAS ([4]; ratio of KD value for HRAS wild-type protein to KD value for KRAS (SPR))	NRAS /KRAS [3, 5]	HRAS /KRAS [4, 6]
7.6	0.098	CC[C@H](C)[C@@H]1NC(=O)[C@H](CC2CC2)N(C)C(=O)C[C@@H](C(=O)N(C)C)N(C)C(=O)[C@H](C2CCCC2)N(C)C(=O)C2(CC(C)(C)C2)NC(=O)[C@@H]2C[C@@H](C)CN2C(=O)[C@H](CCc2ccc(C(F)(F)F)c(OC)c2)NC(=O)CN(C)C(=O)[C@H](Cc2ccc(C)cc2)N2CC/C=C\C[C@@H](C2=O)N(C)C(=O)CN(C)C1=O [PP1901]	–	–	A (a compound having 10 or more and less than 20 is denoted as A)	B (a compound having 3 or more and less than 10 is denoted as B)
12.5	0.2	CC[C@H](C)[C@@H]1NC(=O)[C@H](CC2CC2)N(C)C(=O)C[C@@H](C(=O)N(C)CC)N(C)C(=O)[C@H](C2CCCC2)N(C)C(=O)C2(CC(C)(C)C2)NC(=O)[C@@H]2C[C@@H](C)CN2C(=O)[C@H](CCc2ccc(C(F)(F)F)c(OC)c2)NC(=O)CN(C)C(=O)[C@H](Cc2ccc(C)cc2)N2CC/C=C\C[C@@H](C2=O)N(C)C(=O)CN(C)C1=O [PP1902]	–	–	A (a compound having 10 or more and less than 20 is denoted as A)	A (a compound having 10 or more and less than 20 is denoted as A)
5.5	0.063	CCO[C@@H]1C[C@H]2C(=O)NC3(CC(C)(C)C3)C(=O)N(C)[C@@H](C3CCCC3)C(=O)N(C)[C@H](C(=O)N(C)C)CC(=O)N(C)[C@@H](CC3CC3)C(=O)N[C@@H]([C@@H](C)CC)C(=O)N(C)CC(=O)N(C)[C@H]3C/C=C\CCN(C3=O)[C@@H](Cc3ccc(C)cc3)C(=O)N(C)CC(=O)N[C@@H](CCc3ccc(C(F)(F)F)c(OC)c3)C(=O)N2C1 [PP1903]	–	–	A (a compound having 10 or more and less than 20 is denoted as A)	B (a compound having 3 or more and less than 10 is denoted as B)
6.8	0.31	CCO[C@@H]1C[C@H]2C(=O)NC(C)(C)C(=O)N(C)[C@@H](C3CCCC3)C(=O)N(C)[C@H](C(=O)N(C)CC)CC(=O)N(C)[C@@H](CC(C)C)C(=O)N[C@@H]([C@@H](C)CC)C(=O)N(C)CC(=O)N(C)[C@H]3C/C=C\CCN(C3=O)[C@@H](Cc3ccc(C(F)(F)F)cc3)C(=O)N(C)CC(=O)N[C@@H](CCc3cc(F)c(C(F)(F)F)c(F)c3)C(=O)N2C1 [PP1937]	–	–	A (a compound having 10 or more and less than 20 is denoted as A)	A (a compound having 10 or more and less than 20 is denoted as A)
9.3	0.92	CCC[C@H]1C(=O)N[C@@H]([C@@H](C)CC)C(=O)N(C)CC(=O)N(CCC)CC(=O)N(CCC)[C@@H](Cc2ccc(C(F)(F)F)cc2)C(=O)N(C)CC(=O)N[C@@H](CCc2ccc(C(F)(F)F)c(Cl)c2)C(=O)N2CCC[C@H]2C(=O)NC2(CCC2)C(=O)N(C)[C@@H](C2CCCC2)C(=O)N(C)[C@H](C(=O)N2CCOCC2)CC(=O)N1C [PP1949] ([NMeNva]I[Sar][NPrGly][NPrPhe(4-CF3)][Sar][hPhe(3-Cl-4-CF3)]P[Ac4c][NMeGly(cPent)][NMeD]-Morpholide; lactam N-11)	–	–	C (A compound having a KD ratio of 0.1 or more and less than 3 is denoted as C)	C (A compound having a KD ratio of 0.1 or more and less than 3 is denoted as C)
